# Data from patent US6617329B2, “Aminoquinazolines and their use as medicaments” (Boehringer Ingelheim Pharma KG, priority 2000, dated 2003).
# pIC50: −log10 of the molar value.
# Molecular target: T1, human EGF-R (Homo sapiens, UniProt P00533)
# T1 construct: expressed in transfected cells; host or cells: F/L-HERc cells (murine IL-3-dependent FDC-P1 line transduced with LXSN retroviral vector carrying human EGF-R cDNA; packaging line GP+E86)
# Experiment: Inhibition of EGF-dependent proliferation of F/L-HERc cells (Cell Titer 96 AQueous assay)
# Assay type: cell-based
# Conditions: F/L-HERc cells (murine IL-3-dependent line expressing human EGF-R), stimulated with EGF 20 ng/ml, 48 hours at 37° C.
# Text: A cell line of murine origin dependent on interleukin-3-(IL-3) which was genetically modified to express functional human EGF-R was used here. The proliferation of these cells known as F/L-HERc can therefore be stimulated either by murine IL-3 or by EGF (cf. von Rüden, T. et al. in EMBO J. 7, 2749-2756 (1988). and Pierce, J. H. et al. in Science 239, 628-631 (1988)).
# The starting material used for the F/L-HERc cells was the cell line FDC-P1, the production of which has been described by Dexter, T. M. et al. in J. Exp. Med. 152, 1036-1047 (1980). Alternatively, however, other growth-factor-dependent cells may also be used (cf. for example Pierce, J. H. et al. in Science 239, 628-631 (1988), Shibuya, H. et al. in Cell 70, 57-67 (1992) and Alexander, W. S. et al. in EMBO J. 10, 3683-3691 (1991)). For expressing the human EGF-R cDNA (cf. Ullrich, A. et al. in Nature 309, 418-425 (1984)) recombinant retroviruses were used as described by von Rüden, T. et al., EMBO J. 7, 2749-2756 (1988), except that the retroviral vector LXSN (cf. Miller, A. D. et al. in BioTechniques 7, 980-990 (1989)) was used for the expression of the EGF-R cDNA and the line GP+E86 (cf. Markowitz, D. et al. in J. Virol. 62, 1120-1124 (1988)) was used as the packaging cell.
# F/L-HERc cells were cultivated in RPMI/1640 medium (Bio Whittaker), supplemented with 10% foetal calf serum (FCS, Boehringer Mannheim), 2 mM glutamine (Bio Whittaker), standard antibiotics and 20 ng/ml of human EGF (Promega), at 37° C. and 5% CO2. In order to investigate the inhibitory activity of the compounds according to the invention, 1.5×10^4 cells per well were cultivated in triplicate in 96-well dishes in the above medium (200 μl), the cell proliferation being stimulated with either EGF (20 ng/ml) or murine IL-3. The IL-3 used was obtained from culture supernatants of the cell line X63/0 mIL-3 (cf. Karasuyama, H. et al. in Eur. J. Immunol. 18, 97-104 (1988)). The compounds according to the invention were dissolved in 100% dimethylsulphoxide (DMSO) and added to the cultures in various dilutions, the maximum DMSO concentration being 1%. The cultures were incubated for 48 hours at 37° C.
# In order to determine the inhibitory activity of the compounds according to the invention the relative cell number was measured in O.D. units using the Cell Titer 96™ AQueous Non-Radioactive Cell Proliferation Assay (Promega). The relative cell number was calculated as a percentage of the control (F/LHERc cells without inhibitor) and the concentration of active substance which inhibits the proliferation of the cells by 50% (IC50) was derived therefrom.
# T1 sequence (P00533 25-1210): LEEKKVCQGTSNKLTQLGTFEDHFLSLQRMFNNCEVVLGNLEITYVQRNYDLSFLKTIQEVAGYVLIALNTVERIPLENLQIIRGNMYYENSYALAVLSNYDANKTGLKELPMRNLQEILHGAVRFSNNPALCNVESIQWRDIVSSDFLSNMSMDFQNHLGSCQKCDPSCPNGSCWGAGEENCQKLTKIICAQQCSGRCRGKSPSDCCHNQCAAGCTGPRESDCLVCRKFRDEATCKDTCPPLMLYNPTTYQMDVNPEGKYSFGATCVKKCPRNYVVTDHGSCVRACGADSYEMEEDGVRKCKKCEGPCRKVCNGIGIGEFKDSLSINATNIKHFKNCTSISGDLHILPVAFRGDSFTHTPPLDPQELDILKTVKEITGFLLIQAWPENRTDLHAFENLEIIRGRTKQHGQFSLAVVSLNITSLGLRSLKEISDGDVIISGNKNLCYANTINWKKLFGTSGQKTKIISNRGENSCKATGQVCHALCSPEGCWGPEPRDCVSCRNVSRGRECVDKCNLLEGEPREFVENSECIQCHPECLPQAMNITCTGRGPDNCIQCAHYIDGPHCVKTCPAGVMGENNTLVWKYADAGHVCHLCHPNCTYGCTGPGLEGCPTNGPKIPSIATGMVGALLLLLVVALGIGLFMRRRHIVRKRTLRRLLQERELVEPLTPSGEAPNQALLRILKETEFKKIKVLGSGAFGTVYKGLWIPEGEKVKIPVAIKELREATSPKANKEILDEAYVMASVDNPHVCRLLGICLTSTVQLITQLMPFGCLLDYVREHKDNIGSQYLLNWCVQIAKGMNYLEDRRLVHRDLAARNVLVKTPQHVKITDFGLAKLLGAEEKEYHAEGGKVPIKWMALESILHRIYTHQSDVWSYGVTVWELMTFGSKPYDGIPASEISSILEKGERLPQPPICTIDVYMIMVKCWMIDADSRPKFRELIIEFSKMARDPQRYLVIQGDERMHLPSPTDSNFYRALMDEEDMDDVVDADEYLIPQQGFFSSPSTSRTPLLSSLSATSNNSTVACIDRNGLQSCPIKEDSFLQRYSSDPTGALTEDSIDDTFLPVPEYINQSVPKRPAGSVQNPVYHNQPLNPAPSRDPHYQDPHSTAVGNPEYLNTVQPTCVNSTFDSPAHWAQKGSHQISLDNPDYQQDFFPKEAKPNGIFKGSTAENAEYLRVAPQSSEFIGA
row,pIC50,SMILES
1,7.96,"O=C1CC(N2CCN(CCOc3cc4ncnc(Nc5ccc(F)c(Cl)c5)c4cc3OC3CCCC3)CC2)CO1 (stereo not shown) [3(1), 4-[(3-chloro-4-fluorophenyl)amino]-6-cyclopentyloxy-7-{2-[4-(2-oxo-tetrahydrofuran-4-yl)-piperazin-1-yl]-ethoxy}-quinazoline]"
2,8.40,"O=C1OCCC1N1CCN(CCOc2cc3ncnc(Nc4ccc(F)c(Cl)c4)c3cc2OC2CCCC2)CC1 (stereo not shown) [Example 1, 4-[(3-chloro-4-fluorophenyl)amino]-6-cyclopentyloxy-7-{2-[4-(2-oxo-tetrahydrofuran-3-yl)-piperazin-1-yl]-ethoxy}-quinazoline]"
3,7.21,"O=C1CC(N2CCN(CCOc3cc4ncnc(Nc5ccc(F)c(Cl)c5)c4cc3OCC3CCCC3)CC2)CO1 (stereo not shown) [Example 3, 4-[(3-chloro-4-fluorophenyl)amino]-6-cyclopentylmethoxy-7-{2-[4-(2-oxo-tetrahydrofuran-4-yl)-piperazin-1-yl]-ethoxy}-quinazoline]"
4,7.17,"O=C1CC[C@H](CN2CCN(CCOc3cc4ncnc(Nc5ccc(F)c(Cl)c5)c4cc3OC3CCCC3)CC2)O1 [Example 4, 4-[(3-chloro-4-fluorophenyl)amino]-6-cyclopentyloxy-7-(2-{4-[(R)-(2-oxo-tetrahydrofuran-5-yl)methyl]-piperazin-1-yl}-ethoxy)-quinazoline]"
